We go through 15 compounds from patent US7998978B2 (Pfizer Inc., priority 2006, dated 2011).

This assay concerns the target T1, JNK1α1 (Homo sapiens, UniProt P45983).
T1 construct: catalytic domain containing amino acids 1-364 and N-terminal hexahistidine tag; hexahistidine (His6) (N); made in house; host or cells: E. coli BL21 (DE3)
Briefly: Coupled spectrophotometric (PK/LDH) JNK1α1 assay: % inhibition and Ki determination. Format: biochemical. The settings on record: JNK-1. The essentials:
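Initial rates were taken from the absorbance decrease at 340 nm at 30° C. Ki was fitted with a tight-binding model over 11 concentrations (top 100 μM); single-point inhibition was tested at 1 or 10 μM.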

T1 sequence (P45983 1-364): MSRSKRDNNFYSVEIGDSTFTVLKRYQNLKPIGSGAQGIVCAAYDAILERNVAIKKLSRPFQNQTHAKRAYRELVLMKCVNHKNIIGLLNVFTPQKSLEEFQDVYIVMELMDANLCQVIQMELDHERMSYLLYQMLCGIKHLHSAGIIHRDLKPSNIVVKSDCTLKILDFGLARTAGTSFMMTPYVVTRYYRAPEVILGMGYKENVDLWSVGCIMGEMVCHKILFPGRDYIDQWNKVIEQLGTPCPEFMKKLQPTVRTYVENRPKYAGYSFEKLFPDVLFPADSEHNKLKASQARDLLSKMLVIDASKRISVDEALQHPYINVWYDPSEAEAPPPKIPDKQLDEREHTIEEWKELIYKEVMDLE

For the compound `COCCNC(=O)c1cccc2cnc(N[C@H]3CC[C@H](O)CC3)nc12` [Example 109, 2-[(trans-4-hydroxycyclohexyl)amino]-N-(2-methoxyethyl)quinazoline-8-carboxamide], the Ki – broadly, a dissociation constant, usually derived from enzyme kinetics or from competition with a known ligand – was 678 nM.

In the case of `O=C(Nc1ccccn1)c1cccc2cnc(N[C@H]3CC[C@H](O)CC3)nc12` [Example 110, 2-[(trans-4-hydroxycyclohexyl)amino]-N-pyridin-2-ylquinazoline-8-carboxamide], the Ki was 86 nM.

With `O=C(NC1CCOC1)c1cccc2cnc(N[C@H]3CC[C@H](O)CC3)nc12` (stereo partly drawn) [Example 111, 2-[(trans-4-hydroxycyclohexyl)amino]-N-(tetrahydrofuran-3-yl)quinazoline-8-carboxamide], the Ki turned out to be 142 nM. This Ki lies about 1.7-fold higher than the previous one.

Take `O=C(c1cccc2cnc(N[C@H]3CC[C@H](O)CC3)nc12)N1CCC(O)C1` (stereo partly drawn) [Example 112, 1-({2-[(trans-4-hydroxycyclohexyl)amino]quinazolin-8-yl}carbonyl)pyrrolidin-3-ol]: the inhibition constant (Ki) was > 10000 nM.

`O=C(NC1CCOCC1)c1cccc2cnc(N[C@H]3CC[C@H](O)CC3)nc12` [Example 113, 2-[(trans-4-hydroxycyclohexyl)amino]-N-(tetrahydro-2H-pyran-4-yl)quinazoline-8-carboxamide] yielded a Ki of 271 nM.

The compound `CNC(=O)c1cccc2cnc(N[C@H]3CC[C@H](O)CC3)nc12` [Example 114, 2-[(trans-4-hydroxycyclohexyl)amino]-N-methylquinazoline-8-carboxamide] came in with a Ki of 1550 nM.

`O=C(NC1CCCC1)c1cccc2cnc(N[C@H]3CC[C@H](O)CC3)nc12` [Example 115, N-cyclopentyl-2-[(trans-4-hydroxycyclohexyl)amino]quinazoline-8-carboxamide] showed a Ki of 230 nM.

In turn, `O=C(NCCN1CCOCC1)c1cccc2cnc(N[C@H]3CC[C@H](O)CC3)nc12` [Example 116, 2-[(trans-4-hydroxycyclohexyl)amino]-N-(2-morpholin-4-ylethyl)quinazoline-8-carboxamide] returned a Ki of 2450 nM.

As to `O=C(NCC1CCOC1)c1cccc2cnc(N[C@H]3CC[C@H](O)CC3)nc12` (stereo partly drawn) [Example 117, 2-[(trans-4-hydroxycyclohexyl)amino]-N-(tetrahydrofuran-3-ylmethyl)quinazoline-8-carboxamide], the affinity corresponds to a Ki of 250 nM.

As to `CCNC(=O)c1cccc2cnc(N[C@H]3CC[C@H](O)CC3)nc12` [Example 118, N-ethyl-2-[(trans-4-hydroxycyclohexyl)amino]quinazoline-8-carboxamide], the Ki is 222 nM.

The compound `O=C(NC1CCS(=O)(=O)C1)c1cccc2cnc(N[C@H]3CC[C@H](O)CC3)nc12` (stereo partly drawn) [Example 119, N-(1,1-dioxidotetrahydro-3-thienyl)-2-[(trans-4-hydroxycyclohexyl)amino]quinazoline-8-carboxamide] showed a Ki of 377 nM.

`C[C@@H](O)CNC(=O)c1cccc2cnc(N[C@H]3CC[C@H](O)CC3)nc12` [Example 120, 2-[(trans-4-hydroxycyclohexyl)amino]-N-[(2R)-2-hydroxypropyl]quinazoline-8-carboxamide]: the Ki stood at 147 nM.

`CC(C)(O)CNC(=O)c1cccc2cnc(N[C@H]3CC[C@H](O)CC3)nc12` [Example 121, 2-[(trans-4-hydroxycyclohexyl)amino]-N-(2-hydroxy-2-methylpropyl)quinazoline-8-carboxamide]: the Ki was found to be 169 nM. The Ki values of the last two compounds are within 1.5-fold of each other.

Consider `C[C@@H](CO)NC(=O)c1cccc2cnc(N[C@H]3CC[C@H](O)CC3)nc12` [Example 122, 2-[(trans-4-hydroxycyclohexyl)amino]-N-[(1S)-2-hydroxy-1-methylethyl]quinazoline-8-carboxamide], for which the Ki was 82 nM.

Take `C[C@H](CO)NC(=O)c1cccc2cnc(N[C@H]3CC[C@H](O)CC3)nc12` [Example 123, 2-[(trans-4-hydroxycyclohexyl)amino]-N-[(1R)-2-hydroxy-1-methylethyl]quinazoline-8-carboxamide]: the Ki worked out at 634 nM.
